Literature values in patent US8629128B2, “Vitamin formulation” (priority 2005, dated 2014).
Blank lines part the entries; values can stand above or below the molecule they belong to.

How the values were obtained:
[1] = system: normal and malignant keratinocytes; settings: normal and malignant keratinocytes in culture
[2] = oxidizing agents and sunlight

Structure (SMILES): C=C1/C(=C\C=C2/CCC[C@]3(C)C([C@H](C)/C=C/[C@@H](O)C4CC4)CC[C@@H]23)C[C@@H](O)C[C@@H]1O (stereo partly drawn) [Calcipotriene, (5Z,7E,22E,24S)-24-cyclopropyl-9,10-secochola-5,7,10(19), 22 tetraene-1α,3β,24-triol]
induction of differentiation of keratinocytes [1]: induces the differentiation | inhibition of proliferation of keratinocytes [1]: inhibits proliferation

Structure (SMILES): CC1=C(/C=C/C(C)=C/C=C/C(C)=C/C(=O)O)C(C)(C)CCC1 [Tretinoin, (all-E)-3,7-dimethyl-9-(2,6,6-trimethyl-1-cyclohexen-1-yl)-2,4,6,8-nonatetraenoic acid]
stability of tretinoin [2]: unstable in the presence of oxidizing agents and sunlight

effect on calcium metabolism (calcium metabolism): potent effect on calcium metabolism
Structure (SMILES): C=C1/C(=C\C=C2/CCC[C@]3(C)[C@@H]([C@H](C)CCCC(C)(C)O)CC[C@@H]23)C[C@@H](O)C[C@@H]1O [calcitriol, 1,25-dihydroxy Vitamin D3]
